We go through two molecules from paper PMC3135721 (Journal of medicinal chemistry, 2010).

The test deals with TSPO (Rattus norvegicus, UniProt P16257). The test is described as follows: Inhibition of [3H]1 binding to rat kidney mitochondrial membranes. Particulars: ratio of Ki, 20 vs Ib, 21 vs Ic.

With `CCCCCCN(CCCCCC)C(=O)C(=O)c1c(-c2ccccc2)n(C)c2ccccc12` [compound 21], the “gain in activity with respect to desmethyl counterpart” value is given as 4.6.

In the case of `CCCCN(CCCC)C(=O)C(=O)c1c(-c2ccccc2)n(C)c2ccccc12` [compound 20], the “gain in activity with respect to desmethyl counterpart” value is given as 25.
